Blank lines part the entries; values can stand above or below the molecule they belong to. Residues, ends and D or L forms follow the SMILES beside them. No end group written: not given here. *: point of attachment. X1 = NC(=O)C[C@H](N=C[C@H](O)[C@@H](O)[C@@H](O)[C@H](O)CO)C(=O)*; X2 = NC(=O)C[C@H](N=C[C@H](O)[C@@H](O)[C@H](O)[C@H](O)CO)C(=O)*
Tests used:
[1] = Body weight of MC38 tumor-bearing mice; format: in vivo, mouse; settings: 1 and 3 mg/kg i.p. once daily for two weeks
Protocol: Animal experiments were approved by the Zhengzhou University Ethics Committee. MC38 cells (1 × 10^6) were subcutaneously inoculated into C57BL/N mice. The MC38 tumor-bearing mice were randomly allocated to three groupsn (n = 5 per group): a control group (NS, normal saline containing 1% DMSO); a D-gal-^LPPA-1 peptide group (1 mg/kg); and a D-gal-^LPPA-1 peptide group (3 mg/kg). Daily intraperitoneal injections of the peptide were initiated when the tumor volume reached 50–90 mm^3. The tumor dimensions, including length, width, and height, were measured, and tumor volume was calculated using the following formula:V = 1/2 × A (length) × B (width) × C (height).

mouse PD-L1 (mPD-L1) = mouse PD-L1 (mPD-L1) (Mus musculus, UniProt Q9EP73); test: MST binding assay, mPD-L1; settings: microscale thermophoresis (MST); mPD-L1-His 800 nM, RED-NHS dye, PBST; peptide 400 μM to 0.012 μM; triplicate, mean ± SEM; read-out: dissociation constant (KD), mPD-L1
Chain of mouse PD-L1 (mPD-L1) (Q9EP73 19-290): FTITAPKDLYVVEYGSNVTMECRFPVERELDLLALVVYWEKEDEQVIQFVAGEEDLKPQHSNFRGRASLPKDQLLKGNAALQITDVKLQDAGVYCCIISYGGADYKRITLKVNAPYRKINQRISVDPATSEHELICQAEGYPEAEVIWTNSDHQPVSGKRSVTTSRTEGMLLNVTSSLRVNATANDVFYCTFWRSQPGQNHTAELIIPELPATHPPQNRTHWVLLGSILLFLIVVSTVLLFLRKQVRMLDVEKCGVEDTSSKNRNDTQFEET
Protocol: The concentrations of hPD-L1-His and mPD-L1-His proteins were adjusted to 200 nM and 800 nM, respectively, utilizing PBST as the diluent. Simultaneously, the concentration of RED-NHS676 dye was diluted to 100 nM in PBST. Subsequently, protein and dye were subjected to co-incubation at a volumetric ratio of 1:1 for a duration of 30 min, thereby facilitating the generation of labeled proteins. To establish peptide gradients, a progressive dilution was initiated from an initial concentration of 400 μM, eventually reaching 0.012 μM. Following this preparation, a homogenous amalgamation comprising 5 μL of labeled protein and 5 μL of small molecule diluent was extracted for further experimentation. Subsequently, the samples were transferred to standard capillary tubes and analyzed by an MST instrument (Nano Temper, Monolith NT.115, München, Germany).

[2] = tested on: heart, liver, spleen, lung, kidney of MC38 tumor-bearing mice; test: H&E staining of major organs; format: in vivo, mouse; settings: 1 and 3 mg/kg i.p., vs. normal saline control
Protocol: Tumor tissue and heart, liver, spleen, lung, and kidney tissues were isolated from MC38 tumor-bearing mice and fixed in 4.0% paraformaldehyde. The samples were subsequently embedded in paraffin and subjected to hematoxylin and eosin staining. The results were analyzed using ImageJ1 software (NIH, Bethesda, MD, USA).

[3] = biological target: hPD-1/hPD-L1 interaction (CHO-K1-hPD-1 cells, hPD-L1 protein) (Homo sapiens, UniProt Q9NZQ7); test: Peptide blocking assay (flow cytometry); format: cell-based; settings: CHO-K1-hPD-1 cells 3 × 10^5 per sample, 50 ng hPD-L1, peptide + protein 30 min, + cells 30 min, on ice, 200 μM to 1.6 μM, means ± SEMs from three independent biological triplicates, read-out: IC50, blocking of PD-1/PD-L1 interaction
Chain of hPD-1/hPD-L1 interaction (CHO-K1-hPD-1 cells, hPD-L1 protein) (Q9NZQ7 19-238 limits assumed): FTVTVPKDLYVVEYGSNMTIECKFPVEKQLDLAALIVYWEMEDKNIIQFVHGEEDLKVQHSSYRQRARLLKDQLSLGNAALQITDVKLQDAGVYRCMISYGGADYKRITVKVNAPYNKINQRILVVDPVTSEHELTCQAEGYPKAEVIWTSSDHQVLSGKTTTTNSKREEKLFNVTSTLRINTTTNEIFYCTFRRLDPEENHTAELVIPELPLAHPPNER
Protocol: The interaction between PD-1 and PD-L1 plays a pivotal role in suppressing T-cell function, and disrupting this interaction has emerged as a viable therapeutic strategy in cancer treatment. Thus, we investigated the inhibitory potential of D-glu-^LPPA-1 and D-gal-^LPPA-1 on the PD-1/PD-L1 interaction. To conduct the experiment, CHO-K1-hPD-1 cells were harvested at a density of 3 × 10^5 cells per sample. Peptides were solubilized to a concentration of 200 μM and serially diluted before coincubation with 50 ng of the hPD-L1 protein for 30 min. The protein–peptide mixture was introduced into CHO-K1-hPD-1 cells, which were then coincubated for an additional 30 min. The anti-Fc PE antibody was then added and incubated for 30 min. Flow cytometry was used to evaluate the efficacy of the peptides in blocking the hPD-1/hPD-L1 interaction.
For subsequent multi-concentration blocking assays, peptides were prepared in concentration gradients spanning 200 μM, 100 μM, 50 μM, 25 μM, 12.5 μM, and 6.25 μM. Peptides at different concentrations were incubated with hPD-L1 (mPD-L1) protein (50 ng) on ice for 30 min. Subsequently, the mixture was added to CHO-K1-hPD-1 or CHO-K1-mPD-1 cells and coincubated on ice for 30 min. […] The ability of the peptide to block the PD-1/PD-L1 interaction was assessed using flow cytometry.

hPD-L1-Fc = biological target: T1, hPD-L1-Fc (human, UniProt Q9NZQ7 19-238); test: flow cytometry on cells; blocking assay: peptide in serial dilution from 200 μM pre-incubated with 50 ng hPD-L1-Fc on ice for 30 min, mixture added to CHO-K1-hPD-1 cells (3 x 10^5 per sample) for 30 min, detected with anti-Fc PE antibody; settings: both partners purified
T1 construct: human PD-L1 (hPD-L1), recombinant protein fused to Fc; also called hPD-L1 protein
T1 sequence (Q9NZQ7 19-238): as the sequence (Q9NZQ7 19-238 limits assumed) above

mPD-L1-His = mPD-L1-His (mouse, UniProt Q9EP73 19-290, labelled with RED-NHS676 dye); test: MST; His-tagged PD-L1 (hPD-L1 200 nM, mPD-L1 800 nM) labelled 1:1 with 100 nM RED-NHS676 dye in PBST for 30 min; peptide diluted from 400 μM to 0.012 μM; standard capillaries, Monolith NT.115; settings: both partners purified
Chain of mPD-L1-His (Q9EP73 19-290): as the sequence (Q9EP73 19-290) above

hPD-L1-His = hPD-L1-His (human, UniProt Q9NZQ7 19-290, labelled with RED-NHS676 dye); test: as above; settings: both partners purified
Chain of hPD-L1-His (Q9NZQ7 19-290): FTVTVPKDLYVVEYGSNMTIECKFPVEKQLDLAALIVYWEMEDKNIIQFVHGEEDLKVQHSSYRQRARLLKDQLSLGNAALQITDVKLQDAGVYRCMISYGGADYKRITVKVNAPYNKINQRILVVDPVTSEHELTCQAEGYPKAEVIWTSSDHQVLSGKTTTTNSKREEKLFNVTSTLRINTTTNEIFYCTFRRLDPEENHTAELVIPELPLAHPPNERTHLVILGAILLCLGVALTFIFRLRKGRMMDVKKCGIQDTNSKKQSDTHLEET

Molecule: C[C@@H](O)[C@H](NC(=O)[C@@H]1CCCN1C(=O)[C@H](CCCCN)NC(=O)[C@H](CO)NC(=O)[C@H](Cc1ccc(O)cc1)NC(=O)[C@H](CC(N)=O)N=C[C@H](O)[C@@H](O)[C@@H](O)[C@H](O)CO)C(=O)N[C@@H](CC(=O)O)C(=O)N[C@@H](CCCNC(=N)N)C(=O)N[C@@H](CCC(N)=O)C(=O)N[C@@H](Cc1ccc(O)cc1)C(=O)N[C@@H](Cc1c[nH]cn1)C(=O)N[C@@H](Cc1ccccc1)C(=O)O [D-gal-^LPPA-1] (X1-YSKPTDRQYHF-OH)
body weight [1]: no significant changes in body weight | Kd (mouse PD-L1 (mPD-L1)): 0.015 ± 0.006 µM | organ toxicity (H&E staining) [2]: no apparent toxicity observed

IC50 [3]: 75.5 ± 20.3 µM
Molecule: C[C@@H](O)[C@H](NC(=O)[C@@H]1CCCN1C(=O)[C@H](CCCCN)NC(=O)[C@H](CO)NC(=O)[C@H](Cc1ccc(O)cc1)NC(=O)[C@H](CC(N)=O)N=C[C@H](O)[C@@H](O)[C@H](O)[C@H](O)CO)C(=O)N[C@@H](CC(=O)O)C(=O)N[C@@H](CCCNC(=N)N)C(=O)N[C@@H](CCC(N)=O)C(=O)N[C@@H](Cc1ccc(O)cc1)C(=O)N[C@@H](Cc1c[nH]cn1)C(=O)N[C@@H](Cc1ccccc1)C(=O)O [D-glu-^LPPA-1] (X2-YSKPTDRQYHF-OH)

IC50 (hPD-L1-Fc): 75 µM
B1: D-glu-^LPPA-1 (peptide)
peptide: N(D‑glucose)YSKPTDRQYHF
notes: L-type peptide ^LPPA-1, L-amino-acid analogue of the PD-L1-targeting D-peptide ^DPPA-1; printed in three-letter code; source: synthetic peptide (Fmoc solid-phase synthesis, purified by reverse-phase HPLC)

Kd (mPD-L1-His): 0.0149 µM | Kd (hPD-L1-His): 0.047 µM | IC50 (hPD-L1-Fc): 101 µM
B2: D-gal-^LPPA-1 (peptide)
peptide: N(D‑galactose)YSKPTDRQYHF
notes: as for B1
